These results are taken from article PMC3951324, “Side Chain Hydrophobicity Modulates Therapeutic Activity and Membrane Selectivity of Antimicrobial Peptide Mastoparan-X” (PLoS ONE, 2014).

Data set [1] is described as follows: Mode of peptide-membrane interaction gauged by ITC. The note with it: 20 mM POPC∶POPG (3∶1) LUVs (8 mM for OAMPX) injected 38×1 µL into 100 µM peptide, 37°C, triplicates. Format: physicochemical. On the procedure: Lipid stock solutions of POPC and POPG were prepared in chloroform∶methanol (9∶1). Mixtures of POPC∶POPG (3∶1) were prepared and the organic solvent was evaporated under a gentle stream of nitrogen. The lipid films were kept in vacuum (P<0.1 Pa) overnight in order to remove the residual solvent. Buffer containing 10 mM HEPES and 100 mM sodium chloride (pH 7.4) was added to the lipid films, and they were hydrated for 60 min followed by extrusion through 100 nm using an Avanti mini-extruder. Dynamic Light Scattering (DLS, Brookhaven Instrument Corporation, ZetaPALS) was used for measuring the liposome size distribution. The effective lipid concentration was determined by inductively coupled plasma atomic emission spectroscopy (ICP-AES Vista AX, Varian).
The nature of the peptides' membrane interaction was studied as a function of lipid/peptide ratio (L/P) by ITC (iTC200, Microcal). All experiments were conducted by injection of 20 mM LUVs into 100 µM peptide solution. For OAMPX, 8 mM LUVs were used. The experiments were conducted as 38×1 µL injections, T = 37°C, and the speed of the stirrer was 1000 rpms. All titrations were conducted in triplicates.

Data set [2] relates to Escherichia coli, strain INV-α. In words: Determination of minimal inhibitory concentration (MIC). Format: cell-based. As to conditions: LB medium, 37°C, 20 h, shaking, peptide 0.05–50 µM, absorbance 570 nm, triplicates. On the procedure: (§1) A stock dilution series with ten points, ranging from 1 µM to 1 mM, was prepared in sterile PBS from freshly dissolved peptides. The dilution series was dispensed in triplicates in 96-deepwell microtiter plates (VWR Denmark, Herlev, Denmark), with 15 µl in each well. Multidispensing with electronic pipettes (Biohit, Tåstrup, Denmark) was used throughout. Lactococcus lactis, strain MG1363 (ATCC, LGC Standards AB, Boras, Sweden) and Escherichia coli, strain INV-α (Invitrogen, Nærum, Denmark) were grown in M9 (Sigma Aldrich, Brøndby, Denmark) and LB medium (Difco, BD Biosciences, Brøndby Denmark), respectively. A single colony was grown overnight at 30°C and 37°C for L.lactis and E.coli respectively. The next day, a fresh culture was started with a twenty-fold dilution of the cells and grown for exactly 60 min (optical density was approximately 0.4 at 570 nm). The cell culture was diluted (300 fold for L.lactis and 1000 fold for E.coli) before adding 150 µl to microtiter plates already containing 15 µl peptide solution and 135 µl fresh medium. […] Plates with L.lactis were sealed with lid and parafilm, and plates with E.coli were sealed with a gas-permeable tape (VWR Denmark, Herlev, Denmark). The plates were incubated at the respective temperatures for 20 hours with shaking (150 rpm). For each measurement, 100 µl of the cell culture was transferred to clear, flat-bottomed microtiter plates, and the absorbance at 570 nm was determined using a Victor3 plate reader (Perkin Elmer, Skovlunde, Denmark). The measurement was conducted in triplicates.

The test system of data set [3] is Lactococcus lactis, strain MG1363. The description is as above. As to conditions: strain MG1363, M9 medium, 30°C, 20 h, shaking; peptide 0.05–50 µM; absorbance 570 nm; triplicates. The data set is classed as cell-based. On the procedure:
as §1

For data set [4] the following is noted: obtained via tryptophan fluorescence measurements; cited from earlier work.

Ends that are not written are not given here.

On to “INWKGIAAMAKKLL-NH2 [MPX, mastoparan X, reference compound]”, for which the “endpoint of the reversible (secondary) process, lipid/peptide ratio L/P” value in data set [1] is around 21. For the same substance, in data set [2], the “MIC (E. coli)” value amounted to 8 ± 3 µM. Also, the “MIC (L. lactis)” value in data set [3] came to 2.5 ± 0.5 µM. Besides, the “effective charge (previous result)” value in data set [4] is given as 1.7.
